Laboratory results as given in patent US12023336B2, “Antiviral drug compounds and composition thereof” (priority 2018, dated 2024).

Assays:
CEM-GFP cells = test: MTT cell viability assay in CEM-GFP cells; assay type: cell-based; details: concentration at which cell viability was 50%
Protocol: (a-b) CEM-GFP cells were treated with different concentrations of MTX-HYD and MTX and cytotoxicity was determined by MTT cell viability assay. […] (c-d) CEM-GFP cells were infected with 0.5 MOI (Multiplicity of infection) of HIV-1NL4.3 virus in presence of MTX-HYD or MTX. 72-hours post infection supernatant was collected and virus production was determined by p24 antigen capture ELISA.
(§1) Cytotoxicity of MTX-HYD and MTX and their analogues was determined by MTT cell proliferation assay kit, (Roche, Germany) as described earlier. Briefly, cells were seeded at the density of 25,000 cells/well in 96 well plate containing 100 μL of RPMI. Molecules at different concentration was added to the media and incubated in humidified CO2 incubator. Untreated cells were taken as negative control and DMSO treated cells were taken as vehicle control. 48-hours post incubation, 10 μL of MTT (5 mg/mL) was added in each well in dark and incubated at 37° C. for the formation of formazan crystals. 4-hours post incubation, the crystals were dissolved using 100 μL isopropanol and the absorbance was read at 570 nm.

HIV-1NL4.3 [1] = assay type: cell-based; details: for IC50 / TI (Therapeutic index = CC50/IC50) / therapeutic index compared with MTX-HYD: CEM-GFP cells; for IC50: HIV-1NL4.3 0.5 MOI, p24 ELISA 72 h post infection; for inhibition of replication of HIV-1NL4.3: CEM-GFP (FIG. 9); for therapeutic index compared with MTX-HYD: HIV-1NL4.3
Protocol: Cells were then treated with molecules at different concentrations.

[2] = system: different isolates of HIV-1; test: Anti-HIV activity against different isolates of HIV-1 in CEM-GFP cells and hPBMCs, p24 ELISA; assay type: cell-based
Protocol: (§2) Cells were then treated with molecules at different concentrations. Untreated cells were taken as negative control and DMSO treated cells were taken as vehicle control.

HIV-1 protease = biological target: T1, HIV-1 protease (Human immunodeficiency virus type 1 group M subtype B, UniProt P04585); test: Cell free assay for HIV-1 Protease activity; assay type: biochemical; details: 100 nM
T1 construct: HIV-1 protease enzyme; purchased Biovision, USA
Protocol: (§3) MTX-HYD (100 nM) was tested on viral enzymes Reverse Transcriptase (a), Integrase (b) and Protease (c) in an in vitro cell free assay system. Nevirapine (NVP) (500 nM), Raltegravir (RLT) (1 μM), and Indinavir (IND) (500 nM) were used as the control inhibitors of RT, IN, and PR respectively. Untreated wells (UNT) were considered as negative controls. […] 72-hours post-infection virus production was determined in supernatant by p24 antigen capture ELISA (n=3).
Effect of MTX-HYD on HIV-1 Protease enzyme was determined using HIV-1 Protease Activity Assay Kit, Fluorometric (Biovision, USA) according to manufacturer's protocol. Briefly, in a single step reaction, HIV-1 protease enzyme was diluted in reaction buffer and 10 nmol/well was loaded in 96 well plate in presence or absence of MTX-HYD (100 nM). Indinavir (IND) (500 nM) treated wells were taken as positive control and untreated wells were considered as negative control. 15-minutes post addition, Fluorescence was measured using Molecular Devices M5 at Ex/Em=330/450 nm (FIG. 6).

NF-kB pathway = test: Immunoblotting of IkB phosphorylation and p65 in HIV-1NL4.3 infected CEM-GFP cells; assay type: cell-based; details: 100 nM, 24, 48, 72 h post infection
Protocol: (a) CEM-GFP cells were infected with 0.5 MOI of HIV-1NL4.3 in presence or absence of MTX-HYD (100 nM). Cells were harvested at different time points (24 h, 48 h and 72 h) post-infection. Phosphorylation of IxB was analysed by immunoblotting. (c) CEM-GFP cells were infected with 0.5MOI of HIV-1NL4.3 in presence or absence of MTX-HYD (100 nM) and nuclear cytoplasmic fractions were prepared using NE-PER nuclear-cytoplasmic fractionation kit. p65 levels in both cytoplasm and nucleus were analyzed by immunoblotting. (b and d) Densitometric analysis of immunoblots using QuantityOne software (n=3).

HIV-1NL4.3 [3] = test: microbe, parasite or virus in culture; assay type: cell-based; details: Human immunodeficiency virus 1; 10 μM; HIV-1NL4.3 0.1 MOI; TZM-bl cells; luminescence 48 h; read-out: % Inhibition at 10 μM Concentration
Protocol: TZM-bl cells were seeded at the density of 12,000-15,000 cells/well of 96 well plate with 100 μL DMEM (with 10% FBS) in each well. 12-hours post seeding, the media was replaced with fresh DMEM containing HTV-1NL4.3 at 0.1 MOI and cells were treated with different molecules independently at 10 μM working concentration. Cells were incubated in humidified CO2 incubator for 4-hours. After incubation, the media was replaced and cells were washed twice with incomplete DMEM and 100 μL of complete DMEM was added in each wells along with the molecules of interest and incubated at 37° C. in humidified CO2 incubator. 48-hours post incubation, the media was removed and cells were washed twice with 100 μL of 1×PBS. After washing, cells were lysed using cell culture lysis reagent and Steady-Glo substrate was added at 1:1 ration in each well. Luminescence was measured using Molecular Devices M5 (Table 2). % Inhibition was calculated using following formula and plotted.
[formula] (RLU=Relative Luminescence Unit)

HIV-1 integrase = biological target: T2, HIV-1 integrase (Human immunodeficiency virus type 1 group M subtype B, UniProt P04585); test: Cell free assay for HIV-1 Integrase activity; assay type: biochemical; details: 100 nM
T2 construct: HIV-1 integrase enzyme; purchased XpressBio, USA
Protocol: as §3
MTX-HYD was tested for its effect, if any, on HIV-1 Integrase enzyme using HIV-1 integrase assay kit (XpressBio, USA) according to manufacturer's protocol. Briefly, biotin coated 5′ Donor Strand (DS) was loaded on to streptavidin coated wells and incubated at 37° C. 30-minutes post incubation, wells were washed and unattached DS was removed. After washing, HIV-1 integrase enzyme and Transfer Strand (TS) were added to the wells in presence of MTX-HYD and incubated at 37° C. Raltegravir treated wells were taken as positive controls whereas untreated wells were taken as negative control and DMSO treated wells were taken as vehicle control. 30-minutes post incubation, wells were washed and 100 μL/well TMB substrate was added and incubated for […] at room temperature. 100 μL/well TMB stop solution was added and absorbance was measured at 450 nm.

[4] = MTT cytotoxicity in different cell types (CEM-GFP, Jurkat J6, U937, hPBMCs); assay type: cell-based; details: human; all the cell types tested (CEM-GFP, Jurkat J6, U937, hPBMCs)
Source text: FIG. 2. depicts that MTX-HYD has similar cytotoxicity profile in different cell types. […] Untreated and DMSO treated cells were taken as controls.

[5] = biological target: T3, HIV-1 reverse transcriptase (Human immunodeficiency virus type 1 group M subtype B, UniProt P04585); test: RNA dependent DNA polymerase activity assay of HIV-1 RT (RDDP assay); assay type: biochemical; details: 100 nM; cell free
T3 construct: recombinant HIV-1 reverse transcriptase enzyme; purchased Roche, Germany
Protocol: as §3
Effect of MTX-HYD and MTX on RNA dependent DNA polymerase activity of HIV-1 RT enzyme was tested with HIV-1 reverse transcriptase colorimetric assay kit (Roche, Germany) according to manufacturer's protocol. Briefly, 0.5 ng of recombinant HIV-1 reverse transcriptase enzyme in reaction buffer in presence or absence of MTX-HYD were incubated at room temperature for 5-10 min. Nevirapine (500 nM) treated wells were taken as positive control whereas untreated wells were taken as negative control and DMSO treated wells were taken as vehicle control. The reaction mixture containing Poly rA/OligodT (template/primers) and biotin or digoxigenin labelled dUTP nucleotide mixture was added to initiate the reverse transcription at 37° C. for 12-16 hours. […] ABTS substrate was then added to observe the colour reaction, which was read at 405 nm.

HIV-1NL4.3 [6] = system: HIV-1NL4.3
Protocol: 72-hours post infection supernatant was collected and virus production was determined by p24 antigen capture ELISA.
as §1, §2

Row | Molecule | CC50 (CEM-GFP cells) [µM] | IC50 (HIV-1NL4.3 [1]) [µM] | inhibition of replication of HIV-1NL4.3 (HIV-1NL4.3 [1]; 100 nM) | TI (Therapeutic index = CC50/IC50) (HIV-1NL4.3 [1]) | further results
1 | COC(=O)CCC(NC(=O)c1ccc(N(C)Cc2cnc3nc(N)nc(N)c3n2)cc1)C(=O)OC (stereo not shown) [MTX-methyl-d3-Dimethyl Ester, Methotrexate-methyl-d3-Dimethyl ester] | 47.3 ± 1.51 | 0.0099 ± 0.00151 |  |  | 
2 | CN(Cc1cnc2nc(N)nc(N)c2n1)c1ccc(C(=O)N[C@@H](CCC(=O)O)C(=O)O)cc1 [Methotrexate Hydrate] |  |  |  |  | anti-HIV activity across virus isolates and viral loads ([2]; 0.5 MOI of different isolates, 0.01, 0.1 and 1 MOI of HIV-1NL4.3): not virus isolate and viral load dependent phenomena; effect on Protease (HIV-1 protease): does not target viral enzymes; IkB phosphorylation (NF-kB pathway): may inhibit IkB phosphorylation; inhibition at 10 µM (HIV-1NL4.3 [3]): 98.5%; effect on Integrase (HIV-1 integrase): does not target viral enzymes; CC50 at 48 h [4]: 50 to 75 µM; effect on Reverse Transcriptase [5]: does not target viral enzymes; stage of virus life cycle at which it acts (HIV-1NL4.3 [1]; 100 nM, treated at different stages of virus infection, CEM-GFP): works at an early stage of the life cycle; anti-HIV potential better than MTX (HIV-1NL4.3 [1]; versus MTX (FIG. 1)): ~10 fold
3 | [2H]C([2H])([2H])N(Cc1cnc2nc(N)nc(N)c2n1)c1ccc(C(=O)N[C@@H](CCC(=O)O)C(=O)O)cc1 [MTX-methyl-d3] |  |  | inhibits replication of HIV-1NL4.3 |  | 
4 | COC(=O)CC[C@H](NC(=O)c1ccc(N(C)Cc2cnc3nc(N)nc(N)c3n2)cc1)C(=O)OC [MTX Dimethyl Ester] | 54.3 ± 3.78 | 0.0324 ± 0.00087 | inhibits replication of HIV-1NL4.3 | 1675.3 | therapeutic index compared with MTX-HYD (HIV-1NL4.3 [1]): higher therapeutic index than MTX-HYD
5 | MTX-d3 heptaglutamate | 40.5 ± 3.43 | 0.0779 ± 0.00242 |  |  | 
6 | [2H]C([2H])([2H])N(Cc1cnc2nc(N)nc(N)c2n1)c1ccc(C(=O)NC(CCC(=O)OC)C(=O)OC)cc1 (stereo not shown) [MTX-methyl-d3-Dimethyl Ester, Methotrexate-methyl-d3-Dimethyl ester] |  |  | inhibits replication of HIV-1NL4.3 | 4781.81 | anti-HIV activity across virus isolates ([2]; 25 nM, 0.5 MOI of different isolates): not virus isolate specific phenomena; Therapeutic Index compared with MTX-HYD, other virus isolates ([2]; HIV-1IndieC, HIV-1IIIB, HIV-1ADA, HIV-189.6): higher Therapeutic Index (TI) than Methotrexate Hydrate (MTX-HYD); therapeutic index compared with MTX-HYD (HIV-1NL4.3 [1]): higher therapeutic index than MTX-HYD; therapeutic index (TI) in hPBMCs (HIV-1NL4.3 [6]; HIV-1NL4.3 0.5 MOI): significantly high therapeutic index (TI); inhibition of HIV-1NL4.3 replication in primary cells (HIV-1NL4.3 [6]; hPBMCs): with high efficiency
7 | CN(Cc1cnc2nc(N)nc(N)c2n1)c1ccc(C(=O)N[C@@H](CCC(=O)O)C(=O)O)cc1 [MTX-methyl-d3] | 46.4 ± 1.08 | 0.0421 ± 0.00384 |  |  | 
8 | CN(Cc1cnc2nc(N)nc(N)c2n1)c1ccc(C(=O)N[C@@H](CCC(=O)N[C@@H](CCC(=O)N[C@@H](CCC(=O)N[C@@H](CCC(=O)N[C@@H](CCC(=O)N[C@@H](CCC(=O)N[C@@H](CCC(=O)O)C(=O)O)C(=O)O)C(=O)O)C(=O)O)C(=O)O)C(=O)O)C(=O)O)cc1 [MTX heptaglutamate] | 39.9 ± 1 | 0.0737 ± 0.00165 |  | 541.87 | 
